Values quoted from earlier work in patent US20060110448A1, “Combination of a macrolide and a local anesthetic for the treatment of dermatological diseases” (priority 2003, published 2006).

Tested on: rat model of allogeneic kidney transplantation
Conditions: oral administration, suppression of systemic immune response

C=CC[C@@H]1/C=C(\C)C[C@H](C)C[C@H](OC)[C@H]2O[C@@](O)(C(=O)C(=O)N3CCCC[C@H]3C(=O)O[C@H](/C(C)=C/[C@@H]3CC[C@@H](O)[C@H](OC)C3)[C@H](C)[C@@H](O)CC1=O)[C@H](C)C[C@@H]2OC [tacrolimus]
minimum effective dose (MED): 14 mg/kg
